The values that follow come from patent US9944600B2, “Piperidine derivatives for GPR119 agonist” (CHONG KUN DANG PHARMACEUTICAL CORP., priority 2012, dated 2018).

SMILES strings stand for the structures.

Experiment [1] deals with T1, GPR 119 Receptor (Mus musculus, UniProt Q7TQP3).
T1 construct: from tissue; host or cells: whole animal: male C57/6J Jms mice (normal) or diet induced obesity C57BL/6J mice
T1 sequence (Q7TQP3 1-335): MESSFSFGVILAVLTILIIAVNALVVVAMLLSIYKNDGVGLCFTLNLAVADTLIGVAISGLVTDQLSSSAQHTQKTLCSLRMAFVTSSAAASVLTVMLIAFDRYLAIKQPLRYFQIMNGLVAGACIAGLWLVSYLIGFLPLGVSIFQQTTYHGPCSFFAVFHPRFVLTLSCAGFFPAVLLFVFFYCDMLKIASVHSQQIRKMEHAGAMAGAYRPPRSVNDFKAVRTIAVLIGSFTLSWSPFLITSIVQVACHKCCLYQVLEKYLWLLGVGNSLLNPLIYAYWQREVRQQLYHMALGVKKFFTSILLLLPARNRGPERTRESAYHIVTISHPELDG
The experiment is described as follows: Glucose tolerance test in normal mouse (animal test of activity for the GPR 119 receptor). It is filed as in vivo. Conditions: normal male C57/6J Jms mice; for Decrease % of AUC at 10 mg/kg: oral glucose 2 g/kg, whole blood glucose AUC; for Decrease % of AUC (drop effect in blood glucose level): 10 mg/kg, oral 20% glucose 2 g/kg, whole blood glucose cAUC. As for the experimental part:
Male C57/6J Jms mice of 6-7 weeks of age were fasted for 16 hours before the start of glucose tolerance test. The experimental animal groups consist of: • A. a vehicle group (10% EtOH, 20% HPBCD in saline), • B. a positive control group administered with MBX-2982 (10 mg/kg), and • C. test groups administered with compound 516, 581, 586, 612, 640, 644 or etc. (10 mg/kg).
Before compound administration, that is, at 0 hour, whole blood glucose level was determined using a Glucometer (ACCU-CHEK, Roche). At 30 minutes after compound administration, whole blood glucose level was determined once again, and 20% glucose (2 g/kg/10 mL) was administered orally. Whole blood glucose level was determined at 20, 40, 60, 80, and 120 minutes after 20% glucose administration. Area under the curve (AUC) of whole blood glucose level was obtained using GraphPad Prism 5.0. The effect of glucose tolerance was adjudged with the corrected area under the curve (cAUC), on which the base value of glucose area under the curve was excluded.

Experiment [2] addresses T2, human GPR119 receptor (Homo sapiens, UniProt Q8TDV5).
T2 construct: host or cells: GeneBLAzer T-Rex GPR 119 CHO-K1 DA cells (CHO-K1)
T2 sequence (Q8TDV5 1-335): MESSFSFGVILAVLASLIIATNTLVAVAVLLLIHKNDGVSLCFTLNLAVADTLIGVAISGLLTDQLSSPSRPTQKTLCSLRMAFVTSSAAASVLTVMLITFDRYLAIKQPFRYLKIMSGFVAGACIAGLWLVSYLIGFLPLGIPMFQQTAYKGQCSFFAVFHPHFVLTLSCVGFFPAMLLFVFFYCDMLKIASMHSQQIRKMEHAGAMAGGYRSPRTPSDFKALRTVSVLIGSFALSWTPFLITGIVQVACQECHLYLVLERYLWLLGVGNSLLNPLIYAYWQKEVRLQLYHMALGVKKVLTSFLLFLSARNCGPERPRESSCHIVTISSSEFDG
The experiment is described as follows: Activity test for human GPR119 receptor (GeneBLAzer T-Rex GPR 119 CHO-K1 DA cells, fluorescence reporter). Format: cell-based. As to conditions: 5 hours treatment; for activity at 0.1 µM / activity at 1 µM / activity at 10 µM: read-out: % Activation. The procedure:
As a human GPR119 receptor expression cell for this test, the cell line “GeneBLAzer™ T-Rex GPR 119 CHO-K1 DA cells” that is commercially available from Invitrogen, was used. The cell was incubated in the DMEM media containing 1% dialyzed fetal bovine serum etc. The cell incubator was kept at constant temperature and constant humidity of 37° C., 5% CO2.
The human GPR119 receptor expressing cell was used to this test. Each of test compounds was added to be final concentrations of 0.1, 1, 10 μM in 96 well and tested in duplicate. A fixed amount of cell was added to each well of 96 well separately, and then treated with the test compound for 5 hours. After treatment of color development agent for 2 hours, the fluorescence value was determined with plate reader. To the luminous wavelength of control well, which was not treated with the agonist sample, but in which only a vehicle (i.e., cell) was contained, the ratio of the luminous wavelength of test well, which was treated with the agonist sample, was calculated, and then converted to obtain % value.
All the results were expressed as mean±SD, and each test groups and the control group were compared using student's t-test to adjudge the effects of each test groups.

The mark [3] stands for this setting: test compound conc. 0.1 μM, human GPR119 CHO-K1 reporter cells, ratio to vehicle control well.
Setting [4] is: test compound conc. 1 μM, human GPR119 CHO-K1 reporter cells, ratio to vehicle control well.
Where [5] appears, read: test compound conc. 10 μM, human GPR119 CHO-K1 reporter cells, ratio to vehicle control well.

Regarding `CC(C)(F)CN1CCC(COc2ccc(-c3ccc(C(=O)N4CC[C@H](O)C4)c(F)c3)cc2)CC1` [Compound 640, (S)-(3-fluoro-4′-((1-(2-fluoro-2-methylpropyl)piperidin-4-yl)methoxy)biphenyl-4-yl)(3-hydroxypyrrolidine-1-yl)methanone], the “Decrease % of AUC at 10 mg/kg” value in experiment [1] was determined as 52%.

With `NC(=O)[C@@H]1CCCN1C(=O)c1ccc(-c2ccc(OCC3CCN(CC4(C(F)(F)F)CC4)CC3)nc2)cc1` [Compound 586, (S)-1-(4-(6-((1-((1-(trifluoromethyl)cyclopropyl)methyl)piperidin-4-yl)methoxy)pyridine-3-yl)benzoyl)pyrrolidine-2-carboxamide], the activity at 0.1 µM in experiment [2] (setting [3]) was 213%. In experiment [2] (setting [4]), the activity at 1 µM was 310%. Further, the activity at 10 µM in experiment [2] (setting [5]) was 379%. The “Decrease % of AUC at 10 mg/kg” value in experiment [1] is listed as 34%.

As to `CC(C)(F)CN1CCC(COc2cnc(-c3ccc(C(=O)N4CCCC[C@@H]4C(N)=O)c(F)c3)nc2)CC1` [Compound 1037, (R)-1-(2-fluoro-4-(5-((1-(2-fluoro-2-methylpropyl)piperidin-4-yl)methoxy)pyrimidin-2-yl)benzoyl)piperidin-2-carboxamide], the activity at 0.1 µM in experiment [2] (setting [3]) came out at 223%. Moreover, the activity at 1 µM in experiment [2] (setting [4]) was determined as 478%. Besides, the activity at 10 µM in experiment [2] (setting [5]) came to 439%. In addition, the “Decrease % of AUC at 10 mg/kg” value in experiment [1] came to 42%.

For `CC(C)(F)CN1CCC(COc2ccc(-c3ccc(C(=O)N4CCC[C@@H](O)C4)cc3)cc2)CC1` [Compound 612, (R)-(4′-((1-(2-fluoro-2-methylpropyl)piperidin-4-yl)methoxy)biphenyl-4-yl)(3-hydroxypiperidin-1-yl)methanone], in experiment [1], the “Decrease % of AUC at 10 mg/kg” value was 50% and the “Decrease % of AUC (drop effect in blood glucose level)” value came to 50%.

For the compound `CN(C)C(=O)c1ccc(-c2ccc(OCC3CCN(CC(C)(C)F)CC3)cc2)cc1` [Compound 516, 4′-((1-(2-fluoro-2-methylpropyl)piperidin-4-yl)methoxy)-N,N-dimethylbiphenyl-4-carboxamide], the activity at 0.1 µM in experiment [2] (setting [3]) came to 185%. Moreover, the activity at 1 µM in experiment [2] (setting [4]) stood at 243%. Moreover, the activity at 10 µM in experiment [2] (setting [5]) is 289%. In addition, the “Decrease % of AUC at 10 mg/kg” value in experiment [1] came out at 43%.

As to `NC(=O)[C@@H]1CCCN1C(=O)c1ccc(-c2ccc(OCC3CCN(CC4(C(F)(F)F)CCC4)CC3)nc2)cc1` [Compound 581, (S)-1-(4-(6-((1-((1-(trifluoromethyl)cyclobutyl)methyl)piperidin-4-yl)methoxy)pyridine-3-yl)benzoyl)pyrrolidine-2-carboxamide], in experiment [2] (setting [3]), the activity at 0.1 µM worked out at 254%. Moreover, the activity at 1 µM in experiment [2] (setting [4]) was 344%. In experiment [2] (setting [5]), the activity at 10 µM amounted to 273%. In addition, the “Decrease % of AUC at 10 mg/kg” value in experiment [1] came to 50%.

On to `CC(C)(F)CN1CCC(COc2cnc(-c3ccc(C(=O)N4CCC[C@H]4C(N)=O)c(F)c3)cn2)CC1` [Compound 944, (S)-1-(2-fluoro-4-(5-((1-(2-fluoro-2-methylpropyl)piperidin-4-yl)methoxy)pyrazine-2-yl)benzoyl)pyrrolidine-2-carboxamide], for which the activity at 0.1 µM in experiment [2] (setting [3]) is 180%. The activity at 1 µM in experiment [2] (setting [4]) came to 291%. Besides, the activity at 10 µM in experiment [2] (setting [5]) is 310%. Moreover, the “Decrease % of AUC at 10 mg/kg” value in experiment [1] came to 32%.

For `CC(C)(F)CN1CCC(COc2ccc(-c3ccc(C(=O)N4CC[C@@H](O)C4)c(F)c3)nc2)CC1` [Compound 768, (R)-(2-fluoro-4-(5-((1-(2-fluoro-2-methylpropyl)piperidin-4-yl)methoxy)pyridine-2-yl)phenyl)(3-hydroxypyrrolidine-1-yl)methanone], the activity at 0.1 µM in experiment [2] (setting [3]) was determined as 162%. Also, the activity at 1 µM in experiment [2] (setting [4]) was determined as 260%. Also, the activity at 10 µM in experiment [2] (setting [5]) came to 313%. Besides, the “Decrease % of AUC at 10 mg/kg” value in experiment [1] was 40%.

For the compound `CC(C)(F)CN1CCC(COc2ccc(-c3ccc(C(=O)N4CCC[C@H]4C(N)=O)c(F)c3)cn2)CC1` [Compound 658, (S)-1-(2-fluoro-4-(6-((1-(2-fluoro-2-methylpropyl)piperidin-4-yl)methoxy)pyridine-3-yl)benzoyl)pyrrolidine-2-carboxamide], the activity at 0.1 µM in experiment [2] (setting [3]) is 289%. In experiment [2] (setting [4]), the activity at 1 µM was found to be 248%. Besides, the activity at 10 µM in experiment [2] (setting [5]) worked out at 311%. The “Decrease % of AUC at 10 mg/kg” value in experiment [1] came out at 38%.

`CS(=O)(=O)c1ccc(-c2ccc(OCC3CCN(CC4(C(F)(F)F)CCC4)CC3)cc2)cc1` [Compound 542, 4-((4′-(methylsulfonyl)biphenyl-4-yloxy)methyl)-1-((1-(trifluoromethyl)cyclobutyl)methyl)piperidine]: the activity at 0.1 µM in experiment [2] (setting [3]) was 256%. For the same compound, the activity at 1 µM in experiment [2] (setting [4]) amounted to 347%. For the same compound, in experiment [2] (setting [5]), the activity at 10 µM is 376%.

Regarding `CS(=O)(=O)c1ccc(-c2ccc(OCC3CCN(CC4(C(F)(F)F)CC4)CC3)cc2)cc1` [Compound 500, 4-((4′-(methylsulfonyl)biphenyl-4-yloxy)methyl)-1-((1-(trifluoromethyl)cyclopropyl)methyl)piperidine], in experiment [2] (setting [3]), the activity at 0.1 µM was 214%. Moreover, the activity at 1 µM in experiment [2] (setting [4]) is 298%. Besides, the activity at 10 µM in experiment [2] (setting [5]) turned out to be 310%.

With `CCc1cnc(N2CCC(c3nc(COc4ccc(-n5cnnn5)cc4)cs3)CC2)nc1` [MBX-2982, reference compound], the maximum % activation in experiment [2] (human GPR119 receptor expressing cell, test concentrations 0.1, 1, 10 μM, ratio to vehicle control well) amounted to 200%. Besides, the “% Activation” value was 180% in experiment [2] (setting [3]), 206% in experiment [2] (setting [4]) and 200% in experiment [2] (setting [5]). The “Decrease % of AUC at 10 mg/kg” value in experiment [1] came to 24%. For the same compound, the “Decrease % of AUC (drop effect in blood glucose level)” value in experiment [1] was found to be 24%.

`CCC(F)(CC)CN1CCC(COc2ccc(-c3ccc(C(=O)N4CCC[C@H]4C(N)=O)c(F)c3)cc2C#N)CC1` [Compound 1000, (S)-1-(3′-cyano-4′-((1-(2-ethyl-2-fluorobutyl)piperidin-4-yl)methoxy)-3-fluorobiphenylcarbonyl)pyrrolidine-2-carboxamide]: in experiment [2] (setting [3]), the activity at 0.1 µM stood at 311%. For the same compound, in experiment [2] (setting [4]), the activity at 1 µM is 367%. In addition, in experiment [2] (setting [5]), the activity at 10 µM is 374%.

`CC(C)(F)CN1CCC(COc2ccc(-c3ccc(C(=O)N4CCC(F)(F)C4)cc3)cc2)CC1` [Compound 629, (3,3-difluoropyrrolidine-1-yl)(4′-((1-(2-fluoro-2-methylpropyl)piperidin-4-yl)methoxy)biphenyl-4-yl)methanone]: the activity at 0.1 µM in experiment [2] (setting [3]) came to 199%. Moreover, the activity at 1 µM in experiment [2] (setting [4]) worked out at 229%. Besides, the activity at 10 µM in experiment [2] (setting [5]) worked out at 269%.

With `O=C(c1ccc(-c2cnc(OCC3CCN(CC4(C(F)(F)F)CCC4)CC3)cn2)cc1F)N1CCC[C@@H](O)C1` [Compound 1013, (R)-(2-fluoro-4-(5-((1-((1-(trifluoromethyl)cyclobutyl)methyl)piperidin-4-yl)methoxy)pyrazine-2-yl)phenyl)(3-hydroxypiperidin-1-yl)methanone], in experiment [2] (human GPR119 receptor expressing cell, test concentrations 0.1, 1, 10 μM (concentration not given)), the “% Activation” value is reported as 490%. Moreover, in experiment [2] (setting [3]), the activity at 0.1 µM turned out to be 410%. The activity at 1 µM in experiment [2] (setting [4]) came to 490%. The activity at 10 µM in experiment [2] (setting [5]) stood at 426%.
